Test results taken from PubChem BioAssay (NCI).
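48-hour exposure; five concentrations; linearly interpolated endpoints. TGI marks complete inhibition of growth.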

What was measured:
Experiment in all cases: NCI tumour cell line growth inhibition, 48 h
NCI/ADR-RES ovarian = test system: NCI/ADR-RES ovarian
RPMI-8226 leukemia = test system: RPMI-8226 leukemia
NCI-H460 lung = test system: NCI-H460 lung
DU-145 prostate = test system: DU-145 prostate
SF-539 CNS = test system: SF-539 CNS
OVCAR-4 ovarian = test system: OVCAR-4 ovarian
TK-10 renal = test system: TK-10 renal
EKVX NSCLC = test system: EKVX NSCLC
HL-60(TB) leukemia = test system: HL-60(TB) leukemia
NCI-H226 lung = test system: NCI-H226 lung
A549 NSCLC = test system: A549 NSCLC
HCC-2998 colon = test system: HCC-2998 colon
HOP-62 NSCLC = test system: HOP-62 NSCLC
HT29 colon = test system: HT29 colon
MCF7 breast = test system: MCF7 breast
NCI-H522 lung = test system: NCI-H522 lung
ACHN renal = test system: ACHN renal
HS 578T breast = test system: HS 578T breast
SK-MEL-5 melanoma = test system: SK-MEL-5 melanoma
A498 renal = test system: A498 renal
OVCAR-3 ovarian = test system: OVCAR-3 ovarian
HOP-92 NSCLC = test system: HOP-92 NSCLC
CAKI-1 renal = test system: CAKI-1 renal
U251 CNS = test system: U251 CNS
K-562 leukemia = test system: K-562 leukemia
HCT-15 colon = test system: HCT-15 colon
HCT-116 colon = test system: HCT-116 colon
SF-268 CNS = test system: SF-268 CNS
OVCAR-8 ovarian = test system: OVCAR-8 ovarian
MDA-N = test system: MDA-N
SW-620 colon = test system: SW-620 colon
UACC-62 melanoma = test system: UACC-62 melanoma
SK-MEL-2 melanoma = test system: SK-MEL-2 melanoma
MDA-MB-435 = test system: MDA-MB-435
SF-295 CNS = test system: SF-295 CNS
SNB-75 CNS = test system: SNB-75 CNS
786-0 renal = test system: 786-0 renal
NCI-H23 lung = test system: NCI-H23 lung
T-47D breast = test system: T-47D breast
LOX IMVI melanoma = test system: LOX IMVI melanoma
COLO 205 colon = test system: COLO 205 colon
IGROV1 ovarian = test system: IGROV1 ovarian
SNB-19 CNS = test system: SNB-19 CNS
MDA-MB-231 breast = test system: MDA-MB-231 breast
SK-OV-3 ovarian = test system: SK-OV-3 ovarian
OVCAR-5 ovarian = test system: OVCAR-5 ovarian
RXF 393 renal = test system: RXF 393 renal
UACC-257 melanoma = test system: UACC-257 melanoma
CCRF-CEM leukemia = test system: CCRF-CEM leukemia
UO-31 renal = test system: UO-31 renal
MALME-3M melanoma = test system: MALME-3M melanoma
SK-MEL-28 melanoma = test system: SK-MEL-28 melanoma
M14 melanoma = test system: M14 melanoma
PC-3 prostate = test system: PC-3 prostate
BT-549 breast = test system: BT-549 breast
SN12C renal = test system: SN12C renal
KM12 colon = test system: KM12 colon
SR leukemia = test system: SR leukemia
MOLT-4 leukemia = test system: MOLT-4 leukemia

SMILES: COc1ccc(-n2nnc3c(C#N)c(-c4ccccc4)c(C)n3c2=O)cc1
- TGI (NCI/ADR-RES ovarian): > 100 µM
- TGI (RPMI-8226 leukemia): > 100 µM
- TGI (NCI-H460 lung): > 100 µM
- TGI (DU-145 prostate): > 100 µM
- TGI (SF-539 CNS): > 100 µM
- TGI (OVCAR-4 ovarian): > 100 µM
- TGI (TK-10 renal): > 100 µM
- TGI (EKVX NSCLC): > 100 µM
- TGI (HL-60(TB) leukemia): 68.2 µM
- TGI (NCI-H226 lung): > 100 µM
- TGI (A549 NSCLC): > 100 µM
- TGI (HCC-2998 colon): > 100 µM
- TGI (HOP-62 NSCLC): > 100 µM
- TGI (HT29 colon): > 100 µM
- TGI (MCF7 breast): > 100 µM
- TGI (NCI-H522 lung): > 100 µM
- TGI (ACHN renal): > 100 µM
- TGI (HS 578T breast): > 100 µM
- TGI (SK-MEL-5 melanoma): 48 µM
- TGI (A498 renal): > 100 µM
- TGI (OVCAR-3 ovarian): > 100 µM
- TGI (HOP-92 NSCLC): > 100 µM
- TGI (CAKI-1 renal): > 100 µM
- TGI (U251 CNS): > 100 µM
- TGI (K-562 leukemia): > 100 µM
- TGI (HCT-15 colon): > 100 µM
- TGI (HCT-116 colon): > 100 µM
- TGI (SF-268 CNS): > 100 µM
- TGI (OVCAR-8 ovarian): > 100 µM
- TGI (MDA-N): > 100 µM
- TGI (SW-620 colon): > 100 µM
- TGI (UACC-62 melanoma): > 100 µM
- TGI (SK-MEL-2 melanoma): 83.8 µM
- TGI (MDA-MB-435): > 100 µM
- TGI (SF-295 CNS): > 100 µM
- TGI (SNB-75 CNS): 72.1 µM
- TGI (786-0 renal): 40 µM
- TGI (NCI-H23 lung): > 100 µM
- TGI (T-47D breast): > 100 µM
- TGI (LOX IMVI melanoma): > 100 µM
- TGI (COLO 205 colon): > 100 µM
- TGI (IGROV1 ovarian): > 100 µM
- TGI (SNB-19 CNS): > 100 µM
- TGI (MDA-MB-231 breast): 81.6 µM
- TGI (SK-OV-3 ovarian): > 100 µM
- TGI (OVCAR-5 ovarian): > 100 µM
- TGI (RXF 393 renal): 93.8 µM
- TGI (UACC-257 melanoma): > 100 µM
- TGI (CCRF-CEM leukemia): 58.5 µM
- TGI (UO-31 renal): > 100 µM
- TGI (MALME-3M melanoma): > 100 µM
- TGI (SK-MEL-28 melanoma): > 100 µM
- TGI (M14 melanoma): > 100 µM
- TGI (PC-3 prostate): > 100 µM
- TGI (BT-549 breast): > 100 µM
- TGI (SN12C renal): > 100 µM
- TGI (KM12 colon): > 100 µM
- TGI (SR leukemia): 91 µM

SMILES: COc1cc(CNc2nc3ccccc3nc2-c2cccs2)cc(OC)c1OC
- TGI (NCI/ADR-RES ovarian): 51.2 µM
- TGI (RPMI-8226 leukemia): 53.4 µM
- TGI (NCI-H460 lung): 37.5 µM
- TGI (DU-145 prostate): > 100 µM
- TGI (SF-539 CNS): > 100 µM
- TGI (OVCAR-4 ovarian): 23.4 µM
- TGI (TK-10 renal): > 100 µM
- TGI (EKVX NSCLC): > 100 µM
- TGI (HL-60(TB) leukemia): > 100 µM
- TGI (NCI-H226 lung): 97.7 µM
- TGI (A549 NSCLC): > 100 µM
- TGI (HCC-2998 colon): > 100 µM
- TGI (HOP-62 NSCLC): > 100 µM
- TGI (MOLT-4 leukemia): 29.6 µM
- TGI (HT29 colon): > 100 µM
- TGI (MCF7 breast): > 100 µM
- TGI (NCI-H522 lung): 38.7 µM
- TGI (ACHN renal): 29.3 µM
- TGI (HS 578T breast): 74.8 µM
- TGI (SK-MEL-5 melanoma): 28.8 µM
- TGI (A498 renal): > 100 µM
- TGI (OVCAR-3 ovarian): > 100 µM
- TGI (HOP-92 NSCLC): 10.1 µM
- TGI (CAKI-1 renal): 28.4 µM
- TGI (U251 CNS): > 100 µM
- TGI (K-562 leukemia): 97.7 µM
- TGI (HCT-15 colon): > 100 µM
- TGI (HCT-116 colon): > 100 µM
- TGI (SF-268 CNS): > 100 µM
- TGI (OVCAR-8 ovarian): > 100 µM
- TGI (MDA-N): 95.8 µM
- TGI (SW-620 colon): > 100 µM
- TGI (UACC-62 melanoma): 62.5 µM
- TGI (MDA-MB-435): > 100 µM
- TGI (SF-295 CNS): > 100 µM
- TGI (SNB-75 CNS): > 100 µM
- TGI (786-0 renal): > 100 µM
- TGI (NCI-H23 lung): 65.5 µM
- TGI (T-47D breast): > 100 µM
- TGI (LOX IMVI melanoma): 42.6 µM
- TGI (COLO 205 colon): > 100 µM
- TGI (IGROV1 ovarian): > 100 µM
- TGI (MDA-MB-231 breast): > 100 µM
- TGI (SK-OV-3 ovarian): > 100 µM
- TGI (OVCAR-5 ovarian): > 100 µM
- TGI (RXF 393 renal): > 100 µM
- TGI (UACC-257 melanoma): > 100 µM
- TGI (CCRF-CEM leukemia): 52.2 µM
- TGI (UO-31 renal): 25 µM
- TGI (MALME-3M melanoma): 79.3 µM
- TGI (SK-MEL-28 melanoma): > 100 µM
- TGI (PC-3 prostate): 39.4 µM
- TGI (BT-549 breast): 12.9 µM
- TGI (SN12C renal): 37.8 µM
- TGI (KM12 colon): > 100 µM
- TGI (SR leukemia): > 100 µM
